Data on 3 compounds can be found in patent US20100104621A1, “TREATING ADHD AND OTHER DISEASES INVOLVING INFLAMMATION” (CONNECTED HEALTH SYSTEMS, LLC, priority 2007, published 2010).

For one assay, the system named is VEGF. To be noted: animal studies; cited from earlier work.
Another assay relates to ovarian cancer. Particulars: in 10 days, animal studies; cited from earlier work.
The test system of assay [1] is patient with OCD and ADHD, and their child. Briefly: Example 4: family with history of ADHD, OCD and cancer. Format: in vivo, human. From the text: The 5HT2A receptor has been associated with OCD, Seasonal Affective Disorder, Alcoholism, and a predisposition toward Schizophrenia. The gene for this receptor is found on chromosome 13. A patient presents with OCD and ADHD. Two of their children also are diagnosed with OCD and ADHD. […] They test positive for BRCA2 which is also found on chromosome 13 in the same region as the gene for the 5HT2A receptor.
Lowered catecholamines lead to slightly elevated prolactin and can alter GnRH. Elevated GnRH leads to spikes in estrogen and progesterone and may eventually lead to premature ovarian failure along with alterations in inflammation and co-factors. Elevated interleukins lead to increased free radical production and damage to DNA. Lowered dopamine would allow for angiogenesis. Elevated interleukins could induce CREB and increase the expression of ICAM and VCAM. BRCA2 lowers p53, p21 (tumor suppressor genes) as well as RAD51, which repairs damage to DNA. Catecholamines may interact with genes involved in cancer via common second messenger systems. Laboratory tests reveal that the patient has a high vitamin B6 level of 100, and an abnormal amino acid profile.
Treatment of the patient includes administering an extended release CNS stimulant at an appropriate dosage to achieve the desired therapeutic effect, substantially around the clock. […]

The subject of assay [2] is obese person diagnosed with ADHD. In words: Example 5: treatment of obese person with ADHD. It counts as in vivo, human. To be noted: with Adderall XR; amino acid supplements for 4 months then stopped. From the text:
An obese person presents complaining of depression. They are on Lipitor for high cholesterol and has a heart rate of 116 and a blood pressure of 166/112. They also have “heart burn”. They are diagnosed with ADHD and titrated up to 15 mgs of Adderall XR three times a day. Their heart rate decreases to 100 at the first visit four weeks later and after 8 weeks it is 88. Based on lab reports, their vitamin B6 level is elevated at 56 and they are deficient in arginine, ornithine, histidine, threonine, and taurine along with other amino acids. They also have an elevated IL-6 level. Their vitamin D3 level is also very low. They are started on P-5-P and is supplemented with the aforementioned amino acids to help replenish their body. Their taurine level is 18 and normal is at 54. They are a candidate for developing a cardiac arrhythmia.
[…] Their blood pressure and heart rate continue to decline and they begin to lose weight despite having a normal appetite. […] Their depression is gone and they are dreaming about becoming a lawyer. They remain on Adderall XR, however their dose is decreased to 10 mgs three times a day. They remain on P-5-P. The patient's amino acid profile is normal and their CRP is normal. CRP is an indirect measure of IL-6 and is impacted by low levels of P-5-P.

In assay [3] the test system is person with stage 4 ovarian cancer. Briefly: Example 6: person with stage 4 ovarian cancer. To be noted: with Adderall XR. Format: in vivo, human. From the text: A person presents with stage 4 ovarian cancer, skin picking, irritable bowel syndrome, PMS, allergies, and a tonsillectomy. They are BRCA1 positive and lost their parent due to breast cancer. Other family members have succumbed to breast cancer, pancreatic cancer, and colon cancer. They are screened for ADHD and is started on Adderall XR and titrated up to 15 mgs three times a day. They are tapered off Prozac for depression. Six weeks later they state that their depression is gone and their energy level is back to normal and their strength is retuning. Their nausea is also gone. […] When they ran out of vitamin B6, their skin picking returns in one week, but stops the day they resume taking vitamin B6.
Catecholamines may interact with genes involved in cancer in certain tissues. BRCA1 knocks p21, p53, and RAD51 out. Genes can be turned on and off based on signaling. Their amino acid profile fits with a defect in pyridoxine-5′-phosphate oxidase which is located on […]. This is beside BRCA1 on chromosome 17. It is possible the patient has a defect in SLC6A4 not ADHD 2 on 17p11.2. 17p11.2 is the site of serine hydroxymethyltransferase. Additionally, it is possible that second messengers that are inactivated by BRCA-1 are responsible for lowering their catecholamines. […]

In assay [4] the test system is pyramidal neurons in the medial prefrontal cortex. Particulars: after 12 days of continuous administration; cited from earlier work.

On to `NCCc1ccc(O)c(O)c1` [Dopamine], for which the “effect on VEGF” value in the assay with VEGF is on record as “inhibit”. The “shrinkage of ovarian cancer” value in the assay on ovarian cancer is listed as 80%.

For the compound `Cc1ncc(COP(=O)(O)O)c(C=O)c1O` [P-5-P, pyridoxal 5′-phosphate], the amino acid profile entry is given as “returns to normal” in assay [1] (child, with around the clock stimulant, fish oil and antioxidants); “corrects” in assay [1] (parent, 100 mgs, with extended release CNS stimulant); “normal” in assay [2]. The CRP entry in assay [2] is listed as “normal”. Moreover, in assay [3], the skin picking result is on record as “stops that same day”.

As to `CC(N)Cc1ccccc1` (centres unmarked) [amphetamine], the “dendritic length and branches of pyramidal neurons in the medial prefrontal cortex” value in assay [4] was “increase in dendritic length and branches”.
